Results as given in patent publication US12528792B2, “Sulfonamide compounds and the use thereof in the treatment of cancer” (TROBIO THERAPEUTICS PTY LTD, priority 2019, dated 2026).

Experiments:
Type in all cases: cell-based
[1] = biological target: T1, Tpm3.1-containing actin microfilaments in SK-N-SH neuroblastoma cells (Homo sapiens, UniProt P06753); assay: Imaging and quantitation of Tpm3.1 mCherry and 488-Atto-Phalloidin actin filaments; settings: 24 hours post-treatment, two concentrations, FIG. 2 and FIG. 3
T1 construct: expressed in transfected cells; host or cells: SK-N-SH neuroblastoma cells
T1 sequence (P06753 1-248 isoform P06753-2): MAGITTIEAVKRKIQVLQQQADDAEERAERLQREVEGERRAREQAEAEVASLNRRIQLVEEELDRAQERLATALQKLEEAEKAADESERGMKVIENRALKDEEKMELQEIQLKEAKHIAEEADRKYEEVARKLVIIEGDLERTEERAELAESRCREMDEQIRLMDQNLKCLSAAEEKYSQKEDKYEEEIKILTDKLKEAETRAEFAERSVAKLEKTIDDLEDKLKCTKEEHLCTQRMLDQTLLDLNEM
Description: The ability of compounds 24, 26 and 143 to disrupt Tpm3.1-containing actin microfilaments was investigated in SK—N—SH neuroblastoma cells that express Tpm3.1 labelled with the mCherry fluorophore. Cells were seeded at 3×10^4 cells per well in a volume of 1000 μL complete media onto a 12 well plate containing 13 mm coverslips and left to plate down for 24 hours prior to treatment. Cells were then treated with DMSO and two concentrations of the test compounds. 24 hours post-treatment, cells were fixed with 16% paraformaldehyde (PBS) and stained with 488-Atto-Phalloidin to visualise the actin filament bundles. Single plane images were obtained using the Olympus IX83 epi-fluorescence microscope. Ten fields of view were collected for both Tpm3.1 mCherry fluorophore (FIG. 2) and 488-Atto-Phalloidin (FIG. 3) with each treatment condition.
Quantitation of either Tpm3.1 mCherry filaments or 488-Atto-Phalloidin filaments was performed using ImageJ 1.52p software (ImageJ, NIH). The mean pixel intensity from a cell was measured by using a line across the entire cell cytoplasmic area above or below the nuclear region. The line was made to cross the filament bundles at a 90° angle for the measurement rather than run along a single filament. A total of n=100 cells were measured from ten fields of view. […]

[2] = system: SK-N-SH neuroblastoma cells; assay: Cytotoxicity assay, MTS viability; settings: Homo sapiens, 72 hours
Summary of the method: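 SK-N-SH cells, 2×10^3/well in DMEM with 10% FBS at 37 °C, treated with 1:2 compound series from 100 μM; MTS viability read after 72 hours. Viability normalised to vehicle control; EC50 taken from dose-response curves.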

[3] = system: A2780 ovarian cancer cells; assay: Drug combination screen, 6x6 dose matrix, Bliss-independence synergy; design: key to Max. Synergy, Vinorelbine: Bliss synergy score; 0 = no synergy, negative = antagonism; highest in matrix; key to Total Synergy, Vinorelbine: sum of Bliss synergy scores across the dose matrix; settings: 72 h (26*: 96-well plate format)
Description: In vitro growth inhibition assays were performed as technical triplicate in two independent experiments and cell viability was assessed by Alamar Blue assay readout. Briefly, cells in logarithmic phase growth were seeded in 384-well plates in a 50 μL/well assay volume. Cells were seeded at 1,200 cells/well using a Multidrop 384 (Thermo Scientific) and allowed to adhere at 37° C. with 5% CO2, in a humidified atmosphere (LiCONIC incubator). After 24 hours incubation, test compounds, positive control (20 μM Thonzonium bromide, 100% kill) and vehicle only (0.4% DMSO) were added into wells of each assay plate using a Tecan HP D300 Digital Dispenser in technical triplicate under minimum light. Following 72 hours drug exposure, metabolic activity was detected by addition of 10% (v/v) Alamar Blue reagent to each assay well using a Multidrop Cambi (Thermo Scientific) and determined by measurement of fluorescence intensity (excitation 555 nm, emission 585 nm) using an EnSpire (Perkin Elmer) plate reader. Readings were performed at 0 hour (background) and after 6 hours alamar blue incubation at 37° C.
The two drugs in each combination matrix were dispensed using a Tecan HP D300 Digital Dispenser. Assays were performed in triplicate for each drug combination (test compound/vinorelbine and test compound/paclitaxel combinations). Synergistic drug interactions were calculated from the averaged cell viability data using the methodology described below.
Synergistic drug interactions were determined for each pa1rw1se drug combination by applying the Bliss-independence model that assumes independence of drug mechanisms. Prior to the analysis, percent cell viability (CV) for combination data were converted to fractional cell growth inhibition (GI) by the formula: […]
The Bliss additivism model was used to calculate a predicted combined response C to two single agents with responses A and B (using GI values), as follows:
The final score for any combination was reported as the difference between the value predicted by the additive model and the experimentally observed value, normalised to 100. Using GI values the maximum possible synergy score is 100, with 0 indicating no synergy and negative indicating possible antagonism. Scores were also reported as a “Max synergy” score, which is the highest individual synergy score for each combination matrix, and a “Total synergy” score, which was obtained by summation of each individual synergy score for the matrix.
The single agent IC50 values for the test compounds and their synergy scores in combination with vinorelbine and paclitaxel are presented in Table 4. The data is listed as IC50 mean from technical triplicates for two independent experiments. The averaged IC50 concentrations for the single agents from both runs were then used to generate the 6×6 dose matrices in the synergy experiment. Synergy scores for each drug combination were calculated by the Bliss-independence model. The maximum synergy and total synergy scores for each combination in A2780 cells are listed.

O=C(Nc1ccc(C(F)(F)F)cc1)c1ccn(S(=O)(=O)c2ccc3[nH]ccc3c2)c1 [Compound 26, 1-((1H-indol-5-yl)sulfonyl)-N-(4-(trifluoromethyl)phenyl)-1H-pyrrole-3-carboxamide]
Disruption of Tpm3.1-containing actin microfilaments [1]: disrupt Tpm3.1-containing actin microfilaments in a dose-dependent manner
IC50 [2]: 7.87 µM
Max. Synergy, Paclitaxel ([3]; combination with paclitaxel, Bliss score): 7.83
Total Synergy, Paclitaxel ([3]; combination with paclitaxel, sum of Bliss scores of the matrix): 61.23
Max. Synergy, Vinorelbine ([3]; combination with vinorelbine, Bliss score): 10.86
Total Synergy, Vinorelbine ([3]; combination with vinorelbine, sum of Bliss scores of the matrix): 60.91
